Columns and labels:
LOX IMVI = experiment: Growth inhibition of human LOXIMVI cells incubated for 48 hrs by sulforhodamine B assay; assay type: functional
SN12C = experiment: Growth inhibition of human SN12C cells incubated for 48 hrs by sulforhodamine B assay; assay type: functional
NCI-H460 = experiment: Growth inhibition of human NCI-H460 cells incubated for 48 hrs by sulforhodamine B assay; assay type: functional; settings: NCI-H460, 48 h
786-0 = experiment: Growth inhibition of human 786-0 cells incubated for 48 hrs by sulforhodamine B assay; assay type: functional; settings: 786-0, 48 h
SNB-75 = experiment: Growth inhibition of human SNB75 cells incubated for 48 hrs by sulforhodamine B assay; assay type: functional; settings: SNB-75, 48 h
BT-549 = experiment: Growth inhibition of human BT549 cells incubated for 48 hrs by sulforhodamine B assay; assay type: functional; settings: BT-549, 48 h
MCF7 = experiment: Growth inhibition of human MCF7 cells incubated for 48 hrs by sulforhodamine B assay; assay type: functional; settings: MCF7, 48 h
RXF 393 = experiment: Growth inhibition of human RXF393 cells incubated for 48 hrs by sulforhodamine B assay; assay type: functional; settings: RXF 393, 48 h
KM12 = experiment: Growth inhibition of human KM12 cells incubated for 48 hrs by sulforhodamine B assay; assay type: functional; settings: KM12, 48 h
SF-268 = experiment: Growth inhibition of human SF268 cells incubated for 48 hrs by sulforhodamine B assay; assay type: functional; settings: SF-268, 48 h
IGROV-1 = experiment: Growth inhibition of human IGROV1 cells incubated for 48 hrs by sulforhodamine B assay; assay type: functional; settings: IGROV-1, 48 h
PC-3 = experiment: Growth inhibition of human PC3 cells incubated for 48 hrs by sulforhodamine B assay; assay type: functional; settings: PC-3, 48 h
U-251 = experiment: Growth inhibition of human U251 cells incubated for 48 hrs by sulforhodamine B assay; assay type: functional; settings: U-251, 48 h
CCRF-CEM = experiment: Growth inhibition of human CCRF-CEM cells incubated for 48 hrs by sulforhodamine B assay; assay type: functional
SK-OV-3 = experiment: Growth inhibition of human SKOV3 cells incubated for 48 hrs by sulforhodamine B assay; assay type: functional; settings: SK-OV-3, 48 h
OVCAR-3 = experiment: Growth inhibition of human OVCAR3 cells incubated for 48 hrs by sulforhodamine B assay; assay type: functional; settings: OVCAR-3, 48 h
HL-60(TB) = experiment: Growth inhibition of human HL-60(TB) cells incubated for 48 hrs by sulforhodamine B assay; assay type: functional; settings: HL-60, 48 h
SK-MEL-5 = experiment: Growth inhibition of human SK-MEL-5 cells incubated for 48 hrs by sulforhodamine B assay; assay type: functional; settings: SK-MEL-5, 48 h
A549 = experiment: Growth inhibition of human A549/ATCC cells incubated for 48 hrs by sulforhodamine B assay; assay type: functional; settings: A549, 48 h
[1] = molecular target: RAF proto-oncogene serine/threonine-protein kinase (Homo sapiens, UniProt P04049); experiment: Inhibition of human c-RAF at 10 uM using MEK1 as substrate in presence of [33P]ATP by Hotspot assay relative to control
EKVX = experiment: Growth inhibition of human EKVX cells incubated for 48 hrs by sulforhodamine B assay; assay type: functional
SNB-19 = experiment: Growth inhibition of human SNB19 cells incubated for 48 hrs by sulforhodamine B assay; assay type: functional; settings: SNB-19, 48 h
Malme-3M = experiment: Growth inhibition of human MALME-3M cells incubated for 48 hrs by sulforhodamine B assay; assay type: functional
K562 = experiment: Growth inhibition of human K562 cells incubated for 48 hrs by sulforhodamine B assay; assay type: functional; settings: K562, 48 h
SF-539 = experiment: Growth inhibition of human SF539 cells incubated for 48 hrs by sulforhodamine B assay; assay type: functional; settings: SF-539, 48 h
MDA-MB-435 = experiment: Growth inhibition of human MDA-MB-435 cells incubated for 48 hrs by sulforhodamine B assay; assay type: functional; settings: MDA-MB-435, 48 h
HCT-15 = experiment: Growth inhibition of human HCT15 cells incubated for 48 hrs by sulforhodamine B assay; assay type: functional; settings: HCT-15, 48 h
CAKI-1 = experiment: Growth inhibition of human Caki1 cells incubated for 48 hrs by sulforhodamine B assay; assay type: functional; settings: CAKI-1, 48 h
SW-620 = experiment: Growth inhibition of human SW620 cells incubated for 48 hrs by sulforhodamine B assay; assay type: functional; settings: SW-620, 48 h
HT-29 = experiment: Growth inhibition of human HT-29 cells incubated for 48 hrs by sulforhodamine B assay; assay type: functional; settings: HT-29, 48 h
RPMI-8226 = experiment: Growth inhibition of human RPMI8226 cells incubated for 48 hrs by sulforhodamine B assay; assay type: functional; settings: RPMI-8226, 48 h
M14 = experiment: Growth inhibition of human M14 cells incubated for 48 hrs by sulforhodamine B assay; assay type: functional; settings: M14, 48 h
[2] = read-out: LC50 (the source's name)

Sequence of RAF proto-oncogene serine/threonine-protein kinase (P04049 whole entry): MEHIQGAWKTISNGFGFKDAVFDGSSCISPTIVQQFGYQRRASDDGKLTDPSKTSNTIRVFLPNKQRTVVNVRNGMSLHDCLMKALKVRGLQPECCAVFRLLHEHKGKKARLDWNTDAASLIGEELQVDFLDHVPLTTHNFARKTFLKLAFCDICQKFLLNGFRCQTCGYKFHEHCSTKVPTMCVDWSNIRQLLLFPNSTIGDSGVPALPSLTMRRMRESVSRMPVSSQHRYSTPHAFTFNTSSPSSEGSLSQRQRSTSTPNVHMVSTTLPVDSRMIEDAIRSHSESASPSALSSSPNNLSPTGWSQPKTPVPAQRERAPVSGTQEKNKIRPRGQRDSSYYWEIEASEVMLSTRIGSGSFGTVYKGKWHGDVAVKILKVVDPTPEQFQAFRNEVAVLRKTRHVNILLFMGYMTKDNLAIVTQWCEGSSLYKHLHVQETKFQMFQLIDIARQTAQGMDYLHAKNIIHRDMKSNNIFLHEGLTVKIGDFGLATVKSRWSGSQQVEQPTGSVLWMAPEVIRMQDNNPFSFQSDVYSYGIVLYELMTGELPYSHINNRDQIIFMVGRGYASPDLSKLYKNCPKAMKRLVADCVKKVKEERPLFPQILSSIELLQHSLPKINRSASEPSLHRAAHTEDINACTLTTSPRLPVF

COc1cc2cc(Oc3ccc(NC(=O)Nc4ccc(Cl)c(Cl)c4)cc3)c(C)nc2cc1OC
GI50 (LOX IMVI): 3.45 µM
TGI (LOX IMVI): 14.6 µM
CC50 (LOX IMVI; [2]): 38.2 µM
GI50 (SN12C): 3.39 µM
TGI (SN12C): 20.5 µM
CC50 (SN12C; [2]): > 100 µM
GI50 (NCI-H460): 2.46 µM
TGI (NCI-H460): 10.1 µM
CC50 (NCI-H460; [2]): 45.8 µM
GI50 (786-0): 3.64 µM
TGI (786-0): 17.7 µM
CC50 (786-0; [2]): 65.2 µM
GI50 (SNB-75): 2.33 µM
TGI (SNB-75): 8.28 µM
CC50 (SNB-75; [2]): 66.1 µM
GI50 (BT-549): 2.4 µM
TGI (BT-549): 11.7 µM
CC50 (BT-549; [2]): 51.6 µM
GI50 (MCF7): 2.89 µM
TGI (MCF7): 13.8 µM
CC50 (MCF7; [2]): > 100 µM
GI50 (RXF 393): 4.28 µM
TGI (RXF 393): 16.7 µM
CC50 (RXF 393; [2]): 65.7 µM
GI50 (KM12): 3.22 µM
TGI (KM12): 13.4 µM
CC50 (KM12; [2]): 74.7 µM
GI50 (SF-268): 8.23 µM
LC50 (50% lethal concentration) (SF-268): > 100 µM
TGI (SF-268): > 100 µM
GI50 (IGROV-1): 5.61 µM
TGI (IGROV-1): 46.1 µM
CC50 (IGROV-1; [2]): > 100 µM
GI50 (PC-3): 1.53 µM
TGI (PC-3): 5.13 µM
CC50 (PC-3; [2]): 21.3 µM
GI50 (U-251): 2.19 µM
TGI (U-251): 7.26 µM
CC50 (U-251; [2]): 26.5 µM
GI50 (CCRF-CEM): 2.38 µM
TGI (CCRF-CEM): 14 µM
CC50 (CCRF-CEM; [2]): > 100 µM
GI50 (SK-OV-3): 7.56 µM
TGI (SK-OV-3): 26.4 µM
CC50 (SK-OV-3; [2]): 84.8 µM
GI50 (OVCAR-3): 2.34 µM
TGI (OVCAR-3): 6.19 µM
CC50 (OVCAR-3; [2]): 22.2 µM
GI50 (HL-60(TB)): 2.76 µM
TGI (HL-60(TB)): 6.75 µM
CC50 (HL-60(TB); [2]): > 100 µM
GI50 (SK-MEL-5): 2.58 µM
TGI (SK-MEL-5): 8.09 µM
CC50 (SK-MEL-5; [2]): 30.8 µM
GI50 (A549): 1.64 µM
TGI (A549): 7.61 µM
CC50 (A549; [2]): 28.3 µM
inhibition [1]: 97.8%
GI50 (EKVX): 2.36 µM
LC50 (concentration killing 50% of cells) (EKVX): > 100 µM
TGI (EKVX): 9.51 µM
GI50 (SNB-19): 4.26 µM
TGI (SNB-19): 24 µM
CC50 (SNB-19; [2]): > 100 µM
GI50 (Malme-3M): 3.02 µM
TGI (Malme-3M): 7.72 µM
CC50 (Malme-3M; [2]): 26.7 µM
GI50 (K562): 3.32 µM
LC50 (concentration killing 50% of cells) (K562): > 100 µM
TGI (K562): > 100 µM
GI50 (SF-539): 5.18 µM
TGI (SF-539): 22.3 µM
CC50 (SF-539; [2]): 88.8 µM
GI50 (MDA-MB-435): 3.09 µM
TGI (MDA-MB-435): 16.8 µM
CC50 (MDA-MB-435; [2]): > 100 µM
GI50 (HCT-15): 3.56 µM
LC50 (lethal concentration, 50% net cell kill) (HCT-15): > 100 µM
TGI (HCT-15): > 100 µM
GI50 (CAKI-1): 2.12 µM
TGI (CAKI-1): 6.65 µM
CC50 (CAKI-1; [2]): 49.5 µM
GI50 (SW-620): 4.24 µM
LC50 (SW-620): 60.9 µM
TGI (SW-620): 15.6 µM
GI50 (HT-29): 2.34 µM
TGI (HT-29): 4.89 µM
CC50 (HT-29; [2]): 10.6 µM
GI50 (RPMI-8226): 1.62 µM
LC50 (lethal concentration, 50% cell kill) (RPMI-8226): > 100 µM
TGI (RPMI-8226): 5.73 µM
GI50 (M14): 2.56 µM
TGI (M14): 10.5 µM
CC50 (M14; [2]): 34.7 µM

Source: ChEMBL document CHEMBL3994622, “Design and synthesis of new RAF kinase-inhibiting antiproliferative quinoline derivatives. Part 2: Diarylurea derivatives” (Eur J Med Chem, 2017)
